Measured values: PubChem BioAssay (NCI)
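Interpolation was linear, between the two tested concentrations surrounding the appropriate level; five concentrations were tested over 48 hours in 96-well plates. GI50 is the concentration that inhibits growth by half. TGI: total growth inhibition.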

Key:
Assay in all cases: inhibition of tumour cell growth, NCI panel, 48 h
[1] = tested on: 786-0 renal
[2] = tested on: A498 renal
[3] = tested on: A549 NSCLC
[4] = tested on: ACHN renal
[5] = tested on: BT-549 breast
[6] = tested on: CAKI-1 renal
[7] = tested on: CCRF-CEM leukemia
[8] = tested on: COLO 205 colon
[9] = tested on: DU-145 prostate
[10] = tested on: EKVX NSCLC
[11] = tested on: HCC-2998 colon
[12] = tested on: HCT-116 colon
[13] = tested on: HCT-15 colon
[14] = tested on: HL-60(TB) leukemia
[15] = tested on: HOP-62 NSCLC
[16] = tested on: HOP-92 NSCLC
[17] = tested on: HS 578T breast
[18] = tested on: HT29 colon
[19] = tested on: IGROV1 ovarian
[20] = tested on: K-562 leukemia
[21] = tested on: KM12 colon
[22] = tested on: LOX IMVI melanoma
[23] = tested on: M14 melanoma
[24] = tested on: MALME-3M melanoma
[25] = tested on: MCF7 breast
[26] = tested on: MDA-MB-231 breast
[27] = tested on: MDA-MB-435
[28] = tested on: MOLT-4 leukemia
[29] = tested on: NCI-H226 lung
[30] = tested on: NCI-H23 lung
[31] = tested on: NCI-H460 lung
[32] = tested on: NCI-H522 lung
[33] = tested on: NCI/ADR-RES ovarian
[34] = tested on: OVCAR-3 ovarian
[35] = tested on: OVCAR-4 ovarian
[36] = tested on: OVCAR-5 ovarian
[37] = tested on: OVCAR-8 ovarian
[38] = tested on: PC-3 prostate
[39] = tested on: RPMI-8226 leukemia
[40] = tested on: RXF 393 renal
[41] = tested on: SF-268 CNS
[42] = tested on: SF-295 CNS
[43] = tested on: SF-539 CNS
[44] = tested on: SK-MEL-28 melanoma
[45] = tested on: SK-MEL-5 melanoma
[46] = tested on: SK-OV-3 ovarian
[47] = tested on: SN12C renal
[48] = tested on: SNB-19 CNS
[49] = tested on: SNB-75 CNS
[50] = tested on: SR leukemia
[51] = tested on: SW-620 colon
[52] = tested on: T-47D breast
[53] = tested on: TK-10 renal
[54] = tested on: U251 CNS
[55] = tested on: UACC-257 melanoma
[56] = tested on: UACC-62 melanoma
[57] = tested on: UO-31 renal

For `CN1CCC2(CC1)NC(=O)c1c(c3ccc(Cl)c(Cl)c3n1C)C2C#N` (centres undefined), the GI50 [1] was 10.1 µM, the TGI [1] was 24 µM and the GI50 [2] was 9.05 µM. For the same molecule, the TGI [2] was 24.1 µM, the GI50 [3] was 7.33 µM and the TGI [3] was 24.6 µM. For the same molecule, the GI50 [4] was 5.75 µM, the TGI [4] was 19.4 µM and the GI50 [5] was 2.62 µM. The TGI [5] was 12.5 µM, the GI50 [6] was 4.31 µM and the TGI [6] was 21.3 µM. For the same molecule, the GI50 [7] was 6.32 µM, the TGI [7] was over 54.8 µM and the GI50 [8] was 1.8 µM. It also gave a TGI [8] of 3.83 µM, a GI50 [9] of 6.01 µM and a TGI [9] of 15.2 µM. The GI50 [10] was 12.4 µM, the TGI [10] was 41.1 µM and the GI50 [11] was 1.89 µM. It also gave a TGI [11] of 3.95 µM, a GI50 [12] of 3.11 µM and a TGI [12] of 9.17 µM. For the same molecule, the GI50 [13] was 3.98 µM, the TGI [13] was 15.6 µM and the GI50 [14] was 3.91 µM. It also gave a TGI [14] of over 22.6 µM, a GI50 [15] of 9.72 µM and a TGI [15] of 23.2 µM. It also gave a GI50 [16] of 2.52 µM, a TGI [16] of 19.6 µM and a GI50 [17] of 7.63 µM. It also gave a TGI [17] of 45.6 µM, a GI50 [18] of 3.95 µM and a TGI [18] of 23.6 µM. It also gave a GI50 [19] of 2.31 µM, a TGI [19] of 7.21 µM and a GI50 [20] of 5.76 µM. It also gave a TGI [20] of over 100 µM, a GI50 [21] of 3.84 µM and a TGI [21] of 8.55 µM. For the same molecule, the GI50 [22] was 4.71 µM, the TGI [22] was 18.1 µM and the GI50 [23] was 2.73 µM. The TGI [23] was 8.5 µM, the GI50 [24] was 3.11 µM and the TGI [24] was 9.52 µM. The GI50 [25] was 2.53 µM, the TGI [25] was 8.83 µM and the GI50 [26] was 5.19 µM. It also gave a TGI [26] of 15.2 µM, a GI50 [27] of 2.29 µM and a TGI [27] of 6.58 µM. For the same molecule, the GI50 [28] was 4.52 µM, the TGI [28] was over 28 µM and the GI50 [29] was 6.52 µM. The TGI [29] was 30.7 µM, the GI50 [30] was 11.4 µM and the TGI [30] was 25.7 µM. It also gave a GI50 [31] of 2.75 µM, a TGI [31] of 14.3 µM and a GI50 [32] of 15.2 µM. For the same molecule, the TGI [32] was 44.8 µM, the GI50 [33] was 7.46 µM and the TGI [33] was 23 µM. For the same molecule, the GI50 [34] was 5.32 µM, the TGI [34] was 12.3 µM and the GI50 [35] was 11.7 µM. The TGI [35] was over 56 µM, the GI50 [36] was 8.67 µM and the TGI [36] was 24.3 µM. It also gave a GI50 [37] of 10.4 µM, a TGI [37] of 36.6 µM and a GI50 [38] of 5.7 µM. It also gave a TGI [38] of 21.1 µM, a GI50 [39] of 2.94 µM and a TGI [39] of 13.3 µM. The GI50 [40] was 2.27 µM, the TGI [40] was 7.3 µM and the GI50 [41] was 4.54 µM. The TGI [41] was 15.2 µM, the GI50 [42] was 10 µM and the TGI [42] was 25.3 µM. The GI50 [43] was 5.51 µM, the TGI [43] was 17.9 µM and the GI50 [44] was 1.92 µM. The TGI [44] was 3.89 µM, the GI50 [45] was 2.11 µM and the TGI [45] was 5.18 µM. The GI50 [46] was 14.9 µM, the TGI [46] was 32 µM and the GI50 [47] was 5.82 µM. It also gave a TGI [47] of 31.2 µM, a GI50 [48] of 12.8 µM and a TGI [48] of 27.4 µM. It also gave a GI50 [49] of 4.46 µM, a TGI [49] of 18.8 µM and a GI50 [50] of 1.65 µM. It also gave a TGI [50] of 5.36 µM, a GI50 [51] of 8.48 µM and a TGI [51] of 33.3 µM. It also gave a GI50 [52] of 5.45 µM, a TGI [52] of 20.3 µM and a GI50 [53] of 10.5 µM. The TGI [53] was 23.4 µM, the GI50 [54] was 11.1 µM and the TGI [54] was 26.2 µM. For the same molecule, the GI50 [55] was 2.12 µM, the TGI [55] was 4.71 µM and the GI50 [56] was 1.66 µM. It also gave a TGI [56] of 3.22 µM, a GI50 [57] of 4.21 µM and a TGI [57] of 17.4 µM.
